In data set [1] the test system is N. gonorrhoeae adherence to Pex cells. In words: Fluorometric adherence assay, Pex cells. It is filed as cell-based, human. The note with it: for Gonococcal adherence to Pex cells (fluorescence): 1-h infection with GFP-expressing N. gonorrhoeae, competitor added simultaneously. How it is done: (§1) Fluorometric adherence assays were performed essentially as described previously ([36]). In brief, N. gonorrhoeae MS11 gfp was used to challenge (1 h) Pex or CHO cells simultaneously with peptide or drug competitor. Infected (devoid of peptide or drug) and uninfected (with peptide, drug, or dimethyl sulfoxide [DMSO] vehicle) control cell assays were treated in parallel with competitive peptide/drug inhibition assays. Fluorescence (485 nm excitation, 528 nm emission) intensity, corresponding to bacterial adherence, was recorded using a Synergy HT multimode microplate reader (BioTek Instruments, Winooski, VT, USA). Blank wells, devoid of Pex or CHO cells, were inoculated with bacteria and served as a control for nonspecific binding. Each assay was performed in triplicates on 3 separate occasions. Peptides used are described in Table S1. A nonparametric analysis of variance (ANOVA) was used to determine the statistical significance of the calculated mean of bacterial adherence.

The subject of data set [2] is N. gonorrhoeae adherence to CHO-CR3 cells. In words: Fluorometric adherence assay, CHO-CR3 cells. The following applies: for Gonococcal adherence to CHO-CR3 cells (fluorescence): 1-h infection with GFP-expressing N. gonorrhoeae, competitor added simultaneously. The format is cell-based, Chinese hamster. How it is done:
as §1

The test system of data set [3] is N. gonorrhoeae adherence to CHO-neo cells. The experiment in a line: Fluorometric adherence assay, CHO-neo cells. The note with it: 1-h infection; cells do not express CR3. It is filed as cell-based, Chinese hamster. How it is done: as §1
Data set [4] concerns the target T1, human rI-domain (Homo sapiens, UniProt P11215).
T1 construct: Recombinant human and mouse I-domain proteins were made and purified as previously described; made in house
In words: Repurposed drug SPR against human CR3 I-domain (single-cycle kinetics). The following applies: 10 nM to 0.625 nM, read-out: KD, binding to human rI-domain. How it is done:
Human rI-domain was immobilized onto a CM5 sensor chip with a blank control flow cell as described above. A combination of two FDA-approved drug libraries, Microsource-CPOZ (2,400 drugs) and ML Drug (741 drugs), was purchased from Compounds Australia. […] A single-concentration injection screen (yes/no) binding assay was performed. Binding was determined based on the response unit shift (equal to the molecular weight-corrected response units of the positive-control glycan) of the stability of the binding phase of the dissociation cycle. […] For carbamazepine and methyldopa, saturation occurred between 1.6 nM and 8 nM, and so a new concentration range (10 nM to 0.625 nM) was tested. […] All SPR sensorgrams and result plots described above were analyzed with Biacore S200 evaluation software (GE Healthcare Life Sciences). A literature review was used to evaluate the remaining drugs for known long-term safety in humans and known therapeutic concentrations.

For data set [5], the target named is T1, human rI-domain. The experiment in a line: Direct competition SPR, drug versus N. gonorrhoeae MS11 pilin. The format is binding. The note with it: drug and pilin at 1 μM.
Data set [6] has as its system N. gonorrhoeae infection of Pex cells. How it is done: Infection studies were performed as previously described with modification using a multiplicity of infection of 100 ([44]). To establish infection before treatment, Pex cells were challenged with N. gonorrhoeae for 90 min. The infection medium was then removed, the cells were rinsed thrice, and fresh medium containing 0.1% DMSO (vehicle control), carbamazepine (100 pM to 100 μM), methyldopa (100 pM to 100 μM), or ceftriaxone (0.1 μg/ml or 0.5 μg/ml, positive control) was added. Infections then proceeded for an additional 24 h or 48 h, after which, the infection medium was removed. Pex cell monolayers were subsequently lysed, serial dilutions of the Pex cell lysates were plated, and viable gonococci were enumerated by counting CFU after 48 h of incubation (37°C, 5% CO2). For sequential infection assays, viable bacterial colonies that survived a treatment assay were harvested from the enumeration (CFU) plates and used to inoculate new Pex cell monolayers. For these sequential assays, each infection (the original infection or the infection with bacteria that had survived the original infection) proceeded for 24 h. Pex cells were then processed, and bacteria were enumerated, as described above. For all assays, the percentage of N. gonorrhoeae that survived carbamazepine, methyldopa, or ceftriaxone treatment was determined as a function of bacteria that survived DMSO treatment (set to 100%). All assays were performed in triplicates on 3 separate occasions. A nonparametric ANOVA was used to determine the statistical significance of bacterial survival.

Data set [7] relates to N. gonorrhoeae strains. The experiment in a line: Well diffusion assay. The format is cell-based, Neisseria gonorrhoeae. The note with it: 100 pM to 100 μM in wells, overnight. How it is done: Well diffusion assays were performed essentially as described previously ([56]). Briefly, N. gonorrhoeae strains were spread uniformly across the surfaces of GC agar plates at a culture density of 10^7 bacteria per ml. Wells were then punctured within the agar surface to which carbamazepine or methyldopa (100 pM to 100 μM), 0.2 μg/ml ceftriaxone, 10 μg/ml ciprofloxacin, or 1% DMSO (vehicle control) was added. Following an overnight incubation (37°C, 5% CO2), inhibition of N. gonorrhoeae growth was measured as the diameter (in millimeters) of the area of clearing surrounding (and inclusive of) each well on each agar plate, i.e., the zone of inhibition (ZOI). For agar plates in which a ZOI was not visible, data were recorded as the diameter of the well (6 mm). Assays were performed in triplicates on 3 separate occasions. Statistical significance of data obtained was determined using a Student's t test.
For orientation: Agar diffusion results depend on both activity and mobility in agar.

The conditions of data set [8]: orally administered, prescribed use; cited from earlier work.
In data set [9] the target is T1, human rI-domain. The experiment in a line: Competitive SPR peptide library screen with galactobiose, rI-domain. The following applies: peptide-galactobiose molar ratio 25:1. It is filed as binding. The source says: (§2) The human I-domain sequence (NP_000623.2, amino acids Gly127 to Ala325 of CD11b) was used to generate a peptide library (Mimotopes; Mulgrave, VIC, Australia). Each peptide comprised 15 amino acids, with a 5-amino-acid sliding window, to give a 10-amino-acid overlap down the sequence, for a total of 40 peptides (see Table S1 in the supplemental material). Competitive SPR (Biacore T200 system; GE Healthcare Life Sciences) was used to screen the blocking potential of the peptide library. To this end, 100 μg/ml of each peptide was mixed with […] (2 μM) α1-3 galactobiose and flowed over immobilized human rI-domain and rCR3 on a Series S CM5 chip. Flow cell 1 was a blank immobilization/reference cell. Blocking peptides were defined as those peptides in which the peptide plus glycan response was less than those for the peptide and glycan alone. SPR sensorgrams were analyzed as noted above.

In data set [10] the target is T2, rCR3 (Homo sapiens, UniProt P11215).
T2 construct: purchased R&D Systems
In words: Competitive SPR peptide library screen with galactobiose, rCR3. The format is binding. The following applies: peptide-galactobiose molar ratio 25:1.
Source text: as §2

Entries after “also recorded” stand apart in the source; their conditions may differ.

For orientation: Kd means the free concentration of one partner at which half of the binding sites on the other are occupied at equilibrium, for simple one-to-one binding. In the case of `NC(=O)N1c2ccccc2C=Cc2ccccc21` [carbamazepine], in data set [1], the “Gonococcal adherence to Pex cells (fluorescence)” value is “dose-dependent decrease; also recorded: decreased in a dose-dependent manner”. Besides, the “Gonococcal adherence to CHO-CR3 cells (fluorescence)” value in [2] is listed as “dose-dependent decrease; also recorded: decreased in a dose-dependent manner”. The “Gonococcal adherence to CHO-neo cells (fluorescence)” value in data set [3] is “no effect; also recorded: but not to CHO-neo cells”. Further, the dissociation constant (Kd) in data set [4] came out at 2.12 nM. Moreover, the “Blocking of the interaction of N. gonorrhoeae MS11 pilin with rCR3 or rI-domain” value in data set [5] is recorded as “completely blocked”. Further, the “N. gonorrhoeae strain MS11 survival” value in data set [6] (24 h posttreatment, 100 pM to 100 μM) was “dose-dependent reductions”. In data set [6] (24 h posttreatment, established Pex cell infections), the “Numbers of viable gonococci, low-passage-number gonococcal isolates” value is reported as “significant reductions”. In addition, in [6] (bacteria harvested from a 24-h treated infection, re-used and treated again for 24 h), the “Killing of survivor population in second sequential infection” value is reported as 100%. In addition, the “Efficacy in treating multidrug-resistant gonococci compared with ceftriaxone” value in [6] (panel of multidrug-resistant N. gonorrhoeae isolates) is “more effective than ceftriaxone”. Further, the “Effect on gonococcal viability in the absence of Pex cells (zone of inhibition)” value in data set [7] was “neither carbamazepine nor methyldopa had an effect; also recorded: no effect”. Moreover, the Concentration in serum in data set [8] is about 17 µM.
Regarding H-RIHFTFKEFQNNPNP-OH [G2], the “Blocking of galactobiose binding to rI-domain” value in data set [9] is reported as “able to block”. Further, the “Blocking of galactobiose binding to rCR3” value in data set [10] is “able to block”. In addition, the “Gonococcal adherence to Pex cells, difference from uninfected cells” value in data set [1] (100 μM peptide, P ≥ 0.45) was “not significantly”. In [1], the “Gonococcal adherence to Pex cells (fluorescence)” value is “decreased; also recorded: dose-dependent reduction”. In addition, the “Gonococcal adherence to CHO-CR3 cells, difference from uninfected cells” value in [2] (100 μM peptide, P ≥ 0.67) is listed as “not significantly”. The “Gonococcal adherence to CHO-CR3 cells (fluorescence)” value in data set [2] is “decreased; also recorded: dose-dependent reduction”.

(Values after publication PMC7064771, “Repurposed Drugs That Block the Gonococcus-Complement Receptor 3 Interaction Can Prevent and Cure Gonococcal Infection of Primary Human Cervical Epithelial Cells” (mBio, 2020).)
